Reference: US7737158B2, “Processes for regulating blood glucose in a mammal” (Washington University, priority 2005, dated 2010)
Entries after “also recorded” stand apart in the source; their conditions may differ.

Tests used:
[1] = system: HIB-1B adipocytes; assay: Secretion assay with brefeldin A in differentiated HIB-1B adipocytes (Western blot); format: cell-based, mouse; conditions: BFA 0.5 ug/ml, 12 hours, differentiated HIB-1B adipocytes (day 8)
Description: HIB-1B cells expressing Nampt-FLAG, Dhfr-FLAG, and Ppl-FLAG were differentiated to mature adipocytes (day 8) in 10-cm dishes, and their cell extracts were collected and immunoprecipitated as described above. Culture supernatant (˜8 ml) were collected and immunoprecipitated overnight at 4° C. with anti-FLAG antibody-conjugated beads, washed twice with PBS, and analyzed by Western Blot with rabbit polyclonal anti-FLAG antibody (Sigma, MO).
Brefeldin A (BFA), a potent inhibitor of the classical secretory pathway, was added to examine if Nampt-FLAG® is secreted through the ER-Golgi system. Fully differentiated HIB-1B adipocytes (day 8) were treated with BFA (0.5 ug/ml, Sigma, MO) for 12 hours, and cell extracts and culture supernatants were collected and analyzed as described above.

[2] = system: Chinese hamster ovary (CHO) cells; assay: Secretion assay with brefeldin A in transfected CHO cells (Western blot); format: cell-based; conditions: BFA-treated transfected CHO cells
Description: Cell extracts and culture supernatants were collected 48 hours after transfection, and subjected to immunoprecipitation with anti-FLAG® antibody-conjugated beads as described above, and analyzed by Western Blot with rabbit polyclonal anti-FLAG® antibody (Sigma, MO). Cells were also treated with BFA as described above.

[3] = system: mouse mammary carcinoma model; conditions: eight intraperitoneal injections, 25 mg/kg per injection, 12-hour interval; Muruganandham et al. 2005; cited from earlier work
[4] = system: C57BL/6 mice; assay: Blood glucose levels after intraperitoneal injection in fasted C57BL/6 mice; format: in vivo, mouse; conditions: for effect on blood glucose levels at lower dose: 50 mg/kg intraperitoneal, compared with 500 mg/kg; for blood glucose levels: 4-hr fast, 0-120 min after injection
Description: In this Example, five adult mice (C57BL/6; male; 3-4 months of age) were subjected to a 4-hr fast followed by intraperitoneal injection (500 mg/kg; 50 mg/kg) of nicotinamide, nicotinamide mononucleotide (NMN), or nicotinamide adenine dinucleotide (NAD). A control group of five fasted mice ([…]) were injected with PBS.
Blood glucose levels were measured from tail vein blood samples with an Accu-Chek glucometer (Roche Diagnostics) at 0, 15, 30, 60 and 120 min after injection.

[5] = system: Nampt^+/− mice; assay: Intraperitoneal glucose tolerance test (IPGTT) after NMN administration in Nampt+/- mice; format: in vivo, mouse
Description: Intraperitoneal glucose tolerance tests (IPGTTs) were conducted with a does of 3 g dextrose/kg body weight on Nampt^+/− and Nampt^+/+ siblings. For the IPGTTs, after mice were injected with PBS or NMN (500 mg/kg body weight) and fasted for 12-14 hours, dextrose (3 g/kg body weight) was injected intraperitoneally, and blood glucose levels were measured at 0, 15, 30, 60, and 120 min after injection. Plasma was also collected at 0 and 30 min time points after glucose injection and submitted for insulin measurements to the Washington University RIA Core facility. For the ITTs, after female mice were fasted for 4 hours, human insulin (0.75 U/kg body weight) (Lilly) was injected intraperitoneally to these mice, and blood glucose levels were measured at 0, 15, 30, 45, and 60min after insulin injection.
If the NAD biosynthetic activity of Nampt is responsible for the phenotypes observed in Nampt^+/− mice, the administration of NMN, a product of the Nampt enzymatic reaction, should be able to correct their problems. To test this possibility, the same Nampt^+/− mice that were used for IPGTTs were injected with NMN at a dose of 500 mg/kg body weight intraperitoneally ˜14 hrs prior to IPGTTs. As a control, PBS was injected to the mice ˜14 hrs before conducting previous IPGTTs. […] Blood glucose levels were monitored with a glucometer at 0, 30, and 60 min time points after injection.

[6] = system: B6 mice; assay: Toxicity of NMN dose in B6 mice; format: in vivo, mouse; conditions: NMN 500 mg/kg body weight
Excerpt: Therefore, it will be of great interest to examine whether NMN administration also alleviates the effects of Nampt haplodeficiency in HFD-fed Nampt^+/− mice and even improves the symptoms in HFD-fed Nampt^+/+ mice. […] NMN administration causes an acute increase in blood glucose within 2 hrs, probably due to the rapid release of calcium and eicosanoid in the liver (Broetto-Biazon et al., Eur. J. Pharmacol., (2004) 484, 291-301). Therefore, physiological tests will be conducted ˜14 hrs after NMN injection, as described in Example 18.

[7] = system: NIH3T3 cells; assay: Total cellular NAD levels in NIH3T3 cells by HPLC; format: cell-based, mouse; conditions: addition of 5 mM nicotinamide to the medium (otherwise 33 μM)
Description: Total cellular levels of NAD was measured in the NIH3T3 cell lines overexpressing the untagged enzymes. High performance liquid chromatography was used to measure NAD (Neubert et al., Biochim. Biophys. Acta., (1964) 92, 610-612; Emanuelli et al., J. Chromatogr., (1996) B. 676, 13-18). Briefly, 5×10^5 cells were plated in 6 cm dishes and harvested 48 h later in 800 μl of ice-cold PBS. Cells were then spun down and lysed with 300 μl of 1M HClO4 on ice for 10 min. Lysates were cleared by centrifugating at 4° C. at 18,000 g for 5 minutes. Cleared lysates (240 μl) were neutralized by adding 80 μl of 3M K2CO3 and incubating on ice for 10 minutes. After centrifuging for 10 min, 100 μl of the supernatant were mixed with 400 μl of Buffer A and loaded onto the column. The HPLC was run at a flow rate of 1 ml/min with 100% Buffer A from 0 to 5 min, a linear gradient to 95% Buffer A and 5% Buffer B (100% methanol) from 5 to 6 min, 95% Buffer A and 5% Buffer B from 6 to 11 min, a linear gradient to 85% Buffer A and 15% Buffer B from 11 to 13 min, 85% Buffer A and 15% Buffer B from 13 to 23 min, and a linear gradient to 100% Buffer A from 23 to 24 min. NAD was eluted as a sharp peak at 22 min. The amount of NAD was quantitated based on the peak area compared to a standard curve.

C[C@H]1CCC/C=C/[C@@H]2C[C@H](O)C[C@H]2[C@H](O)/C=C/C(=O)O1 [BFA, Brefeldin A]
eNampt levels in supernatant (extracellular Nampt secretion) [1]: not affected; also recorded: not inhibited | secretion of Prl-FLAG [1]: significantly inhibited | secretion of Prl-FLAG ([1]; listed as brefeldin A): inhibited | secretion of Prl-FLAG [2]: significantly inhibited | secretion of extracellular Nampt [2]: unaffected

O=C(/C=C/c1cccnc1)NCCCCC1CCN(C(=O)c2ccccc2)CC1 [FK866]
inhibition of NAD biosynthesis in vivo [3]: effective to inhibit NAD biosynthesis | toxicity [3]: without any obvious toxicity

NC(=O)c1ccc[n+]([C@@H]2O[C@H](COP(=O)([O-])OP(=O)(O)OC[C@H]3O[C@@H](n4cnc5c(N)ncnc54)[C@H](O)[C@@H]3O)[C@@H](O)[C@H]2O)c1 [NAD, Nicotinamide adenine dinucleotide]
effect on blood glucose levels at lower dose [4]: weaker | blood glucose levels ([4]; 500 mg/kg intraperitoneal): significantly increased | kinetics of glucose increase ([4]; 500 mg/kg intraperitoneal, comparison between compounds): much more pronounced and long-lasting effect

NC(=O)c1ccc[n+]([C@@H]2O[C@H](COP(=O)([O-])O)[C@@H](O)[C@H]2O)c1 [NMN, Nicotinamide mononucleotide]
glucose tolerance in IPGTT ([5]; NMN 500 mg/kg intraperitoneally ~14 hrs prior to IPGTT, Nampt+/- mice compared to Nampt+/+): no longer showed impaired glucose tolerance; also recorded: corrected impaired glucose tolerance; also recorded: can correct | glucose-stimulated insulin secretion (plasma insulin) in IPGTT ([5]; NMN 500 mg/kg intraperitoneally ~14 hrs prior, 30 min after glucose injection, Nampt+/- mice): robust insulin secretion similar to that in Nampt^+/+ mice; also recorded: corrected | toxicity [6]: not cause any obvious toxicity | effect on blood glucose levels at lower dose [4]: weaker | blood glucose levels ([4]; 500 mg/kg intraperitoneal): significantly increased | time within which the acute increase in blood glucose occurs after administration ([4]; NMN administration): ≤ 2 h

NC(=O)c1cccnc1 [nicotinamide, 3-pyridinecarboxamide]
total cellular NAD level [7]: did not increase NAD | effect on blood glucose levels at lower dose [4]: weaker | blood glucose levels ([4]; 500 mg/kg intraperitoneal): significantly increased
